The source of these data is patent US20210395239A1 (Hoffmann-La Roche Inc., priority 2018, published 2021).

Molecules are shown by their SMILES.

This experiment addresses T1, human TLR7 (Homo sapiens, UniProt Q9NYK1).
T1 construct: host or cells: HEK293 (HEK-Blue hTLR7)
T1 sequence (Q9NYK1 27-1049): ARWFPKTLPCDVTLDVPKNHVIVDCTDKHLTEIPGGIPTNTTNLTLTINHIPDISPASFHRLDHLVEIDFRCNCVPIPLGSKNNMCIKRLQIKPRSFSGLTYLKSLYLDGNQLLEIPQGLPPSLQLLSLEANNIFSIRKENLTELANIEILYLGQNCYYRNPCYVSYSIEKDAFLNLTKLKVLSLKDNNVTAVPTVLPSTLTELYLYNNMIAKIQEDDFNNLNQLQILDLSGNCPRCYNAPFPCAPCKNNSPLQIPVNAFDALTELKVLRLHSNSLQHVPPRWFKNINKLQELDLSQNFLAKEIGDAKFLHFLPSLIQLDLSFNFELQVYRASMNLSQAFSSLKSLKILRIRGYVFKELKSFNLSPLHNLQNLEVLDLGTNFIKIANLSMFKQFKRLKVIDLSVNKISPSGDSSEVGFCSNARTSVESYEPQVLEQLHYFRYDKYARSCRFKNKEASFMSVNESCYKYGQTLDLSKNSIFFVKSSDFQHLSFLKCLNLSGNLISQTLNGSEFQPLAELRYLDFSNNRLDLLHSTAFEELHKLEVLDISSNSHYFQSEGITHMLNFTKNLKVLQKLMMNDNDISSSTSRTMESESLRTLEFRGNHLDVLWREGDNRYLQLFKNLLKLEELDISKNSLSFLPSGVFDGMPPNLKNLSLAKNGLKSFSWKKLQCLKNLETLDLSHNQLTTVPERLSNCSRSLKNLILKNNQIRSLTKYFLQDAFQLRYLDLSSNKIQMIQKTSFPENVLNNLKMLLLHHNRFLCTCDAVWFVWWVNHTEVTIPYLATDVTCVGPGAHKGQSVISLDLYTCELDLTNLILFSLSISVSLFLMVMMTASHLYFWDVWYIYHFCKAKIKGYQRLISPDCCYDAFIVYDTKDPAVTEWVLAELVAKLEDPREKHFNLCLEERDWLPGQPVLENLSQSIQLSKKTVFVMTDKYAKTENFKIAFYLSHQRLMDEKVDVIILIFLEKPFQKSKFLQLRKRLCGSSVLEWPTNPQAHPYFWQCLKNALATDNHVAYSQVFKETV
Put plainly: HEK293-Blue-hTLR-7 cells assay (SEAP reporter, R848 stimulation). Type of experiment: cell-based. To be noted: HEK293-Blue-hTLR7 cells, R848, 20 hrs; read-out: HEK/hTLR7 IC50. The text has this:
HEK293-Blue-hTLR-7 Cells Assay:
A stable HEK293-Blue-hTLR-7 cell line was purchased from InvivoGen (Cat. #: hkb-ht1r7, San Diego, Calif., USA). These cells were originally designed for studying the stimulation of human TLR7 by monitoring the activation of NF-κB. A SEAP (secreted embryonic alkaline phosphatase) reporter gene was placed under the control of the IFN-β minimal promoter fused to five NF-κB and AP-1-binding sites. The SEAP was induced by activating NF-κB and AP-1 via stimulating HEK-Blue hTLR7 cells with TLR7 ligands. Therefore the reporter expression was declined by TLR7 antagonist under the stimulation of a ligand, such as R848 (Resiquimod), for incubation of 20 hrs. The cell culture supernatant SEAP reporter activity was determined using QUANTI-Blue™ kit (Cat. #: rep-qb1, Invivogen, San Diego, Ca, USA) at a wavelength of 640 nm, a detection medium that turns purple or blue in the presence of alkaline phosphatase.
HEK293-Blue-hTLR7 cells were incubated at a density of […] cells/mL in a volume of 170 μL in a 96-well plate in Dulbecco's Modified Eagle's medium (DMEM) containing 4.5 g/L glucose, 50 U/mL penicillin, […], […], 2 mM L-glutamine, 10% (v/v) heat-inactivated fetal bovine serum with addition of 20 μL test compound in a serial dilution in the presence of final DMSO at 1% and 10 μL of 20 uM R848 in above DMEM, perform incubation under 37° C. in a CO2 incubator for 20 hrs. Then 20 μL of the supernatant from each well was incubated with 180 μL Quanti-blue substrate solution at 37° C. for 2 hrs and the absorbance was read at 620˜655 nm using a spectrophotometer. The signaling pathway that TLR7 activation leads to downstream NF-κB activation has been widely accepted, and therefore similar reporter assay was modified for evaluating TLR7 antagonist.
On to `CO[C@H]1CN(c2nc(C)cc(N3CCN(C[C@H]4CN(c5ccc(C#N)c6nccnc56)C[C@@H](C)O4)CC3)n2)C[C@@H]1N` [Example 106, 8-[(2S,6R)-2-[[4-[2-[(3S,4S)-3-amino-4-methoxy-pyrrolidin-1-yl]-6-methyl-pyrimidin-4-yl]piperazin-1-yl]methyl]-6-methyl-morpholin-4-yl]quinoxaline-5-carbonitrile], for which the IC50 was found to be 9 nM.
`C[C@@H]1CN(c2ccc(C#N)c3nccnc23)C[C@H](CN2CCN(c3ccnc(N4C[C@H](N)[C@@H](F)C4)n3)CC2)O1` [Example 107, 8-[(2S,6R)-2-[[4-[2-[(3S,4S)-3-amino-4-fluoro-pyrrolidin-1-yl]pyrimidin-4-yl]piperazin-1-yl]methyl]-6-methyl-morpholin-4-yl]quinoxaline-5-carbonitrile]: the IC50 was 8 nM.
The result for `C[C@@H]1CN(c2ccc(C#N)c3nccnc23)C[C@H](CN2CCN(c3ccnc(N4C[C@@H](N)[C@@H](F)C4)n3)CC2)O1` [Example 108, 8-[(2S,6R)-2-[[4-[2-[(3R,4S)-3-amino-4-fluoro-pyrrolidin-1-yl]pyrimidin-4-yl]piperazin-1-yl]methyl]-6-methyl-morpholin-4-yl]quinoxaline-5-carbonitrile] reads 5 nM.
The result for `COC1CCN(c2nccc(N3CCN(C[C@H]4CN(c5ccc(C#N)c6ncccc56)C[C@@H](C)O4)CC3)n2)CC1N` (stereo partly drawn) [Example 109, 5-[(2S,6R)-2-[[4-[2-(3-amino-4-methoxy-1-piperidyl)pyrimidin-4-yl]piperazin-1-yl]methyl]-6-methyl-morpholin-4-yl]quinoline-8-carbonitrile] reads 16 nM; that for `C[C@@H]1CN(c2ccc(C#N)c3ncccc23)C[C@H](CN2CCN(c3ccnc(N4C[C@H](N)[C@@H](F)C4)n3)CC2)O1` [Example 110, 5-[(2S,6R)-2-[[4-[2-[(3S,4S)-3-amino-4-fluoro-pyrrolidin-1-yl]pyrimidin-4-yl]piperazin-1-yl]methyl]-6-methyl-morpholin-4-yl]quinoline-8-carbonitrile], 14 nM; that for `C[C@@H]1CN(c2ccc(C#N)c3nccnc23)C[C@H](CN2CCN(c3ccnc(N4CC[C@H](N)[C@H](F)C4)n3)CC2)O1` [Example 111, 8-[(2S,6R)-2-[[4-[2-[(3R,4S)-4-amino-3-fluoro-1-piperidyl]pyrimidin-4-yl]piperazin-1-yl]methyl]-6-methyl-morpholin-4-yl]quinoxaline-5-carbonitrile], 3 nM.
On to `Cc1cc(N2CCN(C[C@H]3CN(c4ccc(C#N)c5nccnc45)C[C@@H](C)O3)CC2)nc(N2CC(N)C2)n1` [Example 112, 8-[(2S,6R)-2-[[4-[2-(3-aminoazetidin-1-yl)-6-methyl-pyrimidin-4-yl]piperazin-1-yl]methyl]-6-methyl-morpholin-4-yl]quinoxaline-5-carbonitrile], for which the IC50 stood at 4 nM.
For the compound `C[C@@H]1CN(c2ccc(C#N)c3nccnc23)C[C@H](CN2CCN(c3ccnc(N4CC[C@@H](N)[C@H](F)C4)n3)CC2)O1` [Example 113, 8-[(2S,6R)-2-[[4-[2-[(3R,4R)-4-amino-3-fluoro-1-piperidyl]pyrimidin-4-yl]piperazin-1-yl]methyl]-6-methyl-morpholin-4-yl]quinoxaline-5-carbonitrile], the IC50 was 8 nM.
The result for `Cc1cc(N2CCNCC2)nc(N2CCN(C[C@H]3CN(c4ccc(C#N)c5nccnc45)C[C@@H](C)O3)CC2)n1` [Example 114, 8-[(2R,6S)-2-methyl-6-[[4-(4-methyl-6-piperazin-1-yl-pyrimidin-2-yl)piperazin-1-yl]methyl]morpholin-4-yl]quinoxaline-5-carbonitrile] reads 3 nM; that for `Cc1cc(N2C[C@@H](N)[C@@H](F)C2)nc(N2CCN(C[C@H]3CN(c4ccc(C#N)c5nccnc45)C[C@@H](C)O3)CC2)n1` [Example 115, 8-[(2S,6R)-2-[[4-[4-[(3R,4S)-3-amino-4-fluoro-pyrrolidin-1-yl]-6-methyl-pyrimidin-2-yl]piperazin-1-yl]methyl]-6-methyl-morpholin-4-yl]quinoxaline-5-carbonitrile], 4 nM; that for `Cc1ccc(N2C[C@H](CN3CCN(c4nccc(N5CCNCC5)n4)CC3)O[C@H](C)C2)c2nccnc12` [Example 116, (2R,6S)-2-methyl-4-(8-methylquinoxalin-5-yl)-6-[[4-(4-piperazin-1-ylpyrimidin-2-yl)piperazin-1-yl]methyl]morpholine], 21 nM.
To `Cc1ccc(N2C[C@H](CN3CCN(c4ccnc(N5CCNCC5)n4)CC3)O[C@H](C)C2)c2nccnc12` [Example 117, (2R,6S)-2-methyl-4-(8-methylquinoxalin-5-yl)-6-[[4-(2-piperazin-1-ylpyrimidin-4-yl)piperazin-1-yl]methyl]morpholine] belongs 13 nM.
For the compound `C[C@@H]1CN(c2ccc(C#N)c3nccnc23)C[C@H](CN2CCN(c3nccc(N4CC(N)C4)n3)CC2)O1` [Example 118, 8-[(2S,6R)-2-[[4-[4-(3-aminoazetidin-1-yl)pyrimidin-2-yl]piperazin-1-yl]methyl]-6-methyl-morpholin-4-yl]quinoxaline-5-carbonitrile], the IC50 worked out at 4 nM.
For the compound `C[C@@H]1CN(c2ccc(C#N)c3nccnc23)C[C@H](CN2CCN(c3nccc(N4C[C@@H](N)[C@H](F)C4)n3)CC2)O1` [Example 119, 8-[(2S,6R)-2-[[4-[4-[(3R,4R)-3-amino-4-fluoro-pyrrolidin-1-yl]pyrimidin-2-yl]piperazin-1-yl]methyl]-6-methyl-morpholin-4-yl]quinoxaline-5-carbonitrile], the IC50 was found to be 16 nM.
Take `CO[C@@H]1CN(c2cc(C)nc(N3CCN(C[C@H]4CN(c5ccc(C#N)c6nccnc56)C[C@@H](C)O4)CC3)n2)C[C@@H]1N` [Example 120, 8-[(2S,6R)-2-[[4-[4-[(3S,4R)-3-amino-4-methoxy-pyrrolidin-1-yl]-6-methyl-pyrimidin-2-yl]piperazin-1-yl]methyl]-6-methyl-morpholin-4-yl]quinoxaline-5-carbonitrile]: the IC50 turned out to be 5 nM.
Regarding `CO[C@@H]1CN(c2cc(C)nc(N3CCN(C[C@H]4CN(c5ccc(C#N)c6nccnc56)C[C@@H](C)O4)CC3)n2)C[C@H]1N` [Example 121, 8-[(2S,6R)-2-[[4-[4-[(3R,4R)-3-amino-4-methoxy-pyrrolidin-1-yl]-6-methyl-pyrimidin-2-yl]piperazin-1-yl]methyl]-6-methyl-morpholin-4-yl]quinoxaline-5-carbonitrile], the IC50 worked out at 8 nM.
For `CO[C@H]1CN(c2cc(C)nc(N3CCN(C[C@H]4CN(c5ccc(C#N)c6nccnc56)C[C@@H](C)O4)CC3)n2)C[C@H]1N` [Example 122, 8-[(2S,6R)-2-[[4-[4-[(3R,4S)-3-amino-4-methoxy-pyrrolidin-1-yl]-6-methyl-pyrimidin-2-yl]piperazin-1-yl]methyl]-6-methyl-morpholin-4-yl]quinoxaline-5-carbonitrile], the IC50 was 5 nM.
The result for `Cc1cc(N2CC(N)C2)nc(N2CCN(C[C@H]3CN(c4ccc(C#N)c5nccnc45)C[C@@H](C)O3)CC2)n1` [Example 123, 8-[(2S,6R)-2-[[4-[4-(3-aminoazetidin-1-yl)-6-methyl-pyrimidin-2-yl]piperazin-1-yl]methyl]-6-methyl-morpholin-4-yl]quinoxaline-5-carbonitrile] reads 3 nM.
